From patent US9359409B2, “Antimicrobial peptides, compositions comprising the same and uses thereof” (priority 2012, dated 2016)
Peptide text beside a SMILES is read from it.

Legend:
P. aeruginosa = type: cell-based
Procedure: (§1) In vitro sensitivity assay of aerobically growing bacteria, using the disc diffusion method was performed according to the standards in the M2 document of the CLSI (Clinical and Laboratory Standards Institute: Performance Standards for Antimicrobial Disk Susceptibility Tests.) using the non-amidated peptides
(§2) In brief, intermediate solutions (10×) of the antimicrobial non-amidated peptides were prepared by serial dilutions 1:2, 1:4 and 1:8 by two-fold dilutions. Then, one part of the solution of the antimicrobial peptide 10× was added to nine parts of melted bacteriological agar. The antibiotic solution was added for each dilution, in the melted agar and cooled to 45-50° C. in a water bath. Then, the agar-antibiotic mixture was placed in a Petri dish until a 3-4 mm depth was reached. The inoculum is prepared with a turbidity of 0.5 in the McFarland scale (approximately 1-2 10^8 CFU/ml). The final inoculum required for the agar dilution test is 10^4 colony forming units (CFU) per “spot” having 5-8 mm in diameter. The inoculated plates must be incubated upside down at 35° C. for a period of 16-20 hs. MIC was recorded as the value of the lower dilution completely inhibiting bacterial development, without considering the development of a single colony or a slight film caused by the inoculum deposit. The final point in these cases will correspond to the concentration at which there is more than 80% reduction in growth as compared with the control.

K. pneumoniae = type: cell-based
Procedure: as §1, §2

S. warnerii = type: cell-based
Procedure: as §1, §2

S. cohnii = type: cell-based
Procedure: as §1, §2

E. coli = type: cell-based
Procedure: as §1, §2

S. aureus = type: cell-based
Procedure: as §1, §2

Staphylococcus cohnii = system: Staphylococcus cohnii
Procedure: (§3) The 5 designed and synthesized peptides of the invention, plus omiganan (peptide of the state of the art) were evaluated for their antimicrobial capacity in microdilution assays for determining the minimum inhibitory concentration (MIC). A first panel of 8 representative strains was analyzed in these assays, encompassing Gram positive and Gram negative bacteria. […] The lowest MIC values indicate a higher antimicrobial potency.
(§4) Subsequently, an analysis of a panel of clinical isolates including strains with different resistance mechanisms against conventional antibiotics was carried out, all of which are of clinical relevance. […] In Table 3 the results for a panel of Gram negative bacteria are shown, and in Table 4 for a panel of […] bacteria. In these tables the detected gene/s responsible for the resistance against antibiotics for each strain, are included.
(§5) Antimicrobial activity was analyzed by means of the determination of the MIC (minimum inhibitory concentration) by the microdilution technique. The technique was carried out in the standard fashion according to (CLSI M07-A9 Vol. 32 No 2. January 2012). The peptide concentration range used was from 0.5 μg/mL to 512 μg/mL in two-fold serial dilutions. The used medium was MH Difco broth supplemented with cations, at a final concentration of Ca^++20-25 mg/L and Mg^++10-12.5 mg/L. The working inoculum used corresponds to a 1/100 dilution of a bacterial suspension equivalent to 0.5 in the Mc Farland scale.

Staphylococcus warneri = system: Staphylococcus warneri
Procedure: as §3, §4, §5

Klebsiella pneumoniae = system: Klebsiella pneumoniae
Procedure: as §3, §4, §5

Escherichia coli = system: Escherichia coli
Procedure: as §3, §4, §5

Pseudomonas aeruginosa = assay: MIC by broth microdilution; type: cell-based
Procedure: as §3, §4, §5

CC[C@H](C)[C@H](NC(=O)[C@H](CCCCN)NC(=O)[C@H](CCCNC(=N)N)NC(=O)[C@H](CC(N)=O)NC(=O)CNC(=O)[C@H](CCCNC(=N)N)NC(=O)[C@H](Cc1ccccc1)NC(=O)[C@@H](NC(=O)[C@H](CS)NC(=O)[C@H](Cc1c[nH]cn1)NC(=O)[C@H](CC(C)C)NC(=O)[C@@H]1CCCN1C(=O)[C@H](CCC(N)=O)NC(=O)[C@@H]1CCCN1C(=O)[C@@H](NC(=O)[C@H](CC(N)=O)NC(=O)[C@@H]1CCCN1C(=O)[C@H](CC(C)C)NC(=O)CNC(=O)[C@@H](NC(=O)CNC(=O)[C@H](CO)NC(=O)[C@H](CC(C)C)NC(=O)[C@H](CC(C)C)NC(=O)[C@H](CC(=O)O)NC(=O)[C@H](CS)NC(=O)[C@@H](NC(=O)[C@@H](N)[C@@H](C)O)[C@@H](C)O)C(C)C)C(C)C)C(C)C)C(=O)N[C@@H](CCCCN)C(=O)N[C@@H](Cc1c[nH]c2ccccc12)C(N)=O [peptide 4] (H-TTCDLLSGVGLPNVPQPLHCVFRGNRKIKW-NH2)
MIC in agar dilution (P. aeruginosa): >128 mg/L | MIC in agar dilution (K. pneumoniae): >128 mg/L | MIC in agar dilution (S. warnerii): >128 mg/L | MIC in agar dilution (S. cohnii): >128 mg/L | MIC in agar dilution (E. coli): >128 mg/L | MIC in agar dilution (S. aureus): >128 mg/L | MIC (Staphylococcus cohnii): >256 mg/L | MIC (Staphylococcus warneri): >256 mg/L | MIC (Klebsiella pneumoniae): >256 mg/L | MIC (Escherichia coli): >256 mg/L | MIC (Pseudomonas aeruginosa): >256 mg/L
